Test results: patent publication US9400281B2, “Method of screening of therapeutic agents for K-Ras mutant driven cancers” (PUSAN NATIONAL UNIVERSITY INDUSTRY-UNIVERSITY COOPERATION …, priority 2008, dated 2016)
Several values for one entry are separate records, joined by “and”; a condition that tells them apart may be missing. Equal values may be shown once. Read-outs that look alike come from different tables or passages of the source.

Assays:
[1] = system: K-Ras mutant cancer cell lines HCT116; test: Western blot of p53 and p21 expression in K-Ras mutant HCT116 cells; type: cell-based; details: for fold induction at 10 µM: Homo sapiens, HCT-116, HCT116, 10 μM; for Protein expression ratio of compound to control, p21 / Protein expression ratio of compound to control, p53: HCT116, 10 μM, DMSO control = 1.0
Method: To confirm whether the compounds prepared according to Examples 1 to 5 are effective for inhibiting SNAIL-p53 binding at cell level, the compound was treated into K-Ras mutant cancer cell lines HCT116 and results were analyzed by western blotting.
Oncogenic K-ras suppresses the p53 activity through SNAIL. In the cell line HCT116, SNAIL is always expressed by K-Ras mutation and bound to p53 to suppress normal activity of p53. If the K-Ras mutant cancer cell line HCT116 is treated with a compound for suppressing SNAIL-p53 binding, p53 is normally activated and more expressed, and target genes of p53 are induced.
First, western blotting was performed to detect expression of p53 and p21, which is a target gene of p53. All cell lines used in the present invention were obtained from ATCC, and maintained in 10% FBS-containing RPMI-1640 or DMEM. Protein was extracted with RIPA buffer solution and a membrane loaded with cell lysate through typical SDS-PAGE and gel transfer method was prepared. After blocking with 5% non-fat dry milk, the membrane was subjected into a typical western blot procedure with an antibody corresponding to each gene. Antibodies used herein were obtained from Cell signaling, SantaCruz. p53 activity was confirmed by expression of p21, which is a target gene of p53.

SNAIL-p53 binding = test: GST pull down assay of SNAIL-p53 binding (Experimental Example 2); set-up: species or system human; details: FIG. 21
Method: GST pull down assay is a method for identifying a binding degree of two proteins. GST-fused SNAIL protein and p53 recombinant protein were prepared and treated with the compound 5o or 7a to identify a binding degree of GST-SNAIL protein and p53 protein. […] If MDM2 is over-expressed, proteolysis of p53 is induced to suppress apoptosis occurring through target genes of p53, and an […] of cells is induced. Although MDM2 is a representative control factor of p53, MDM2 is not applied to K-Ras mutant disease or mutant p53 containing disease.
To perform GST pull down assay, three human SNAIL fragments (residues 1-90, 91-112, and 113-264) and p53 fragments (1-93 and 93-292) were expressed in E. coli as GST-fusion protein. Each of the fragments was loaded on to GSH-agarose, washed, and then eluted using a buffer containing 20 mM reduced glutathione. The eluted fractions were purified using an anionexchange chromatography (HitrapQ). The recombinant human p53 protein (residues 94-292) was expressed in E. coli using the vector pET28A which contains a hexa-histidine tag at the C terminus. The p53 protein including the hexa-histidine tag was purified using Ni-NTA affinity and a size exclusion chromatography (Superdex 200). To confirm the direct binding between p53 and SNAIL, agarose-bead conjugated GST or GST-SNAIL was incubated with His-p539 (histidine-p53) in PBS for 45 minutes at 4° C.. After washing with PBS, the precipitated protein was subjected into SDS-PAGE and western blotting.

[2] = system: A549 (K-Ras mutant cancer cell line); test: Cell death rate by tryphan blue cell counting, A549; type: cell-based; details: A549 (A546 [sic])
Description: (§1) To confirm that the p53 induction of the compounds is related to K-Ras, A549 and HCT116, which are K-Ras mutant cancer cell lines, and MKN45, which is K-Ras wild type cancer cell line, were used.

[3] = system: HCT116 (K-Ras mutant cancer cell line); test: Cell death rate by tryphan blue cell counting, HCT116; type: cell-based
[4] = system: MKN45 (K-Ras wild type cancer cell line); test: Cell death rate by tryphan blue cell counting, MKN45; type: cell-based
Description: as §1

MDA-MB 468 = test: Western blot of p21 expression in mutant p53 MDA-MB 468 cells; type: cell-based, human; details: for Expression ratio of gene to control, p21: DMSO control = 1.0
[5] = DMSO control = 1.0, read-out: Protein expression ratio of compound to control, p21
[6] = DMSO control = 1.0, read-out: Protein expression ratio of compound to control, p53

Structure (SMILES)	melting point	fold induction at 10 µM [1, 5]	fold induction at 10 µM [1, 6]	other results
CCCCCSC1=CC(=O)c2ccccc2C1=O [Compound 1e, 2-pentylthio-1,4-naphthoquinone]	111 to 112 °C	–	–	–
CCCCCCSC1=CC(=O)c2ccccc2C1=O [Compound 1f, 2-hexylthio-1,4-naphthoquinone]	101 to 102 °C	–	–	–
CCCCCCCSC1=CC(=O)c2ccccc2C1=O [Compound 1g, 2-heptylthio-1,4-naphthoquinone]	114 to 115 °C	–	–	–
CCCCCCCCSC1=CC(=O)c2ccccc2C1=O [Compound 1h, 2-octylthio-1,4-naphthoquinone]	114 to 115 °C	–	–	–
CCCCCCCCCSC1=CC(=O)c2ccccc2C1=O [Compound 1i, 2-nonylthio-1,4-naphthoquinone]	105 to 106 °C	–	–	–
CCCCCCCCCCSC1=CC(=O)c2ccccc2C1=O [Compound 1j, 2-decylthio-1,4-naphthoquinone]	101 to 102 °C	–	–	–
CCCCCCCCCNC1=CC(=O)c2c(OC)ccc(OC)c2C1=O [Compound 5i, 2-nonylamino-5,8-dimethoxy-1,4-naphthoquinone]	–	4.6	1.6	–
CCCCCCCCCCNC1=CC(=O)c2c(OC)ccc(OC)c2C1=O [Compound 5j, 2-decylamino-5,8-dimethoxy-1,4-naphthoquinone]	86 to 87 °C	5	1.3	–
COc1ccc(OC)c2c1C(=O)C=C(SCCO)C2=O [Compound 5k, 2-(2-hydroxyethylthio)-5,8-dimethoxy-1,4-naphthoquinone]	117 to 118 °C	0.2	0.3	–
COc1ccc(OC)c2c1C(=O)C=C(SCCCO)C2=O [Compound 5l, 2-(3-hydroxypropylthio)-5,8-dimethoxy-1,4-naphthoquinone]	–	0.1	0.6	–
COc1ccc(OC)c2c1C(=O)C=C(SCCCCO)C2=O [Compound 5m, 2-(4-hydroxybutylthio)-5,8-dimethoxy-1,4-naphthoquinone]	122 to 123 °C	0.1	0.8	–
COc1ccc(OC)c2c1C(=O)C=C(SCCCCCCO)C2=O [Compound 5n, 2-(6-hydroxyhexylthio)-5,8-dimethoxy-1,4-naphthoquinone]	–	0.2	1.1	–
COc1ccc(OC)c2c1C(=O)C=C(SCCCCCCCCCCC(=O)O)C2=O [Compound 5p, 11-(5,8-dimethoxy-1,4-dioxo-naphthalen-2-ylthio)undecanoic acid]	146 to 147 °C	0.3	1.6	–
COc1ccc(OC)c2c1C(=O)C=C(SCCC(=O)N1CCN(c3ccccc3)CC1)C2=O [Compound 6a, 5,8-dimethoxy-2-(3-oxo-3-(4-phenylpiperazin-1-yl)propylthio)naphthalene-1,4-dione]	–	2.8	1.9	–
COc1ccc(OC)c2c1C(=O)C=C(SCCCCCCCCCCC(=O)OCC(C)C)C2=O [Compound 7a, isobutyl-11-(5,8-dimethoxy-1,4-dioxo-1,4-dihydronaphthalene-2-ylthio)undecanoate]	–	7.2	4.2	Binding between GST-SNAIL protein and p53 (SNAIL-p53 binding): substantially weak; Cancer cell death rate of compounds with respect to control ([2]; 5 μM): 23 ± 3.4%; Cancer cell death rate of compounds with respect to control ([2]; 20 μM): 45 ± 2.3%; Cancer cell death rate of compounds with respect to control ([3]; 5 μM): 32 ± 2.1%; Cancer cell death rate of compounds with respect to control ([3]; 20 μM): 57 ± 2.8%; Cancer cell death rate of compounds with respect to control ([4]; 5 μM): 1 ± 1.0%; Cancer cell death rate of compounds with respect to control ([4]; 20 μM): 3 ± 2.4%
COc1ccc(OC)c2c1C(=O)C=C(SCCCCCCCCCCC(=O)NCC(C)C)C2=O [Compound 7b, 11-(5,8-dimethoxy-1,4-dioxo-1,4-dihydronaphthalene-2-ylthio)-N-isobutyl undecanamide]	–	–	–	Protein expression ratio of compound to control, p21 [1]: 7.0; Protein expression ratio of compound to control, p53 [1]: 4.6
COc1ccc(OC)c2c1C(=O)C=C([S+]([O-])CCCCCCCCCCC(=O)OCC(C)C)C2=O (centres unmarked) [Compound 8, isobutyl 11-(5,8-dimethoxyl-1,4-dioxo-1,4-dihydronaphthalene-2-ylsulfinyl) undecanoate]	–	–	–	Protein expression ratio of compound to control, p21 [1]: 1.7; Protein expression ratio of compound to control, p53 [1]: 2.3
COc1ccc(C2=N[C@@H](c3ccc(Cl)cc3)[C@@H](c3ccc(Cl)cc3)N2C(=O)N2CCNC(=O)C2)c(OC(C)C)c1 [Nutlin-3, reference compound]	–	–	–	Binding between GST-SNAIL protein and p53 (SNAIL-p53 binding): did not inhibit SNAIL-p53 binding; Cancer cell death rate of compounds with respect to control ([2]; 5 μM): 11 ± 4.0%; Cancer cell death rate of compounds with respect to control ([2]; 10 μM): 19% and 19 ± 4.5%; Cancer cell death rate of compounds with respect to control ([2]; 20 μM): 25 ± 4.7%; Cancer cell death rate of compounds with respect to control ([3]; 5 μM): 21 ± 2.4%; Cancer cell death rate of compounds with respect to control ([3]; 10 μM): 32% and 32 ± 2.9%; Cancer cell death rate of compounds with respect to control ([3]; 20 μM): 40 ± 3.1%; Cancer cell death rate of compounds with respect to control ([4]; 5 μM): 28 ± 2.2%; Cancer cell death rate of compounds with respect to control ([4]; 10 μM): 38% and 38 ± 2.9%; Cancer cell death rate of compounds with respect to control ([4]; 20 μM): 47 ± 2.2%; Expression ratio of gene to control, p21 (MDA-MB 468; MDA-MB 468, 10 μM): 0.9; Expression ratio of gene to control, p21 (MDA-MB 468; MDA-MB 468, 20 μM): 1.2; Expression of p21 (target gene of p53) (MDA-MB 468; p53 mutant-type MDA-MB 468, FIG. 23): did not affect p21

Second part, led by results:

melting point	Structure (SMILES)	fold induction at 10 µM [1, 5]	fold induction at 10 µM [1, 6]	other results
172 to 173 °C	CCNC1=CC(=O)c2c(OC)ccc(OC)c2C1=O [Compound 5b, 2-ethylamino-5,8-dimethoxy-1,4-naphthoquinone]	–	–	–
175 to 176 °C	CCCNC1=CC(=O)c2c(OC)ccc(OC)c2C1=O [Compound 5c, 2-propylamino-5,8-dimethoxy-1,4-naphthoquinone]	–	–	–
104 to 105 °C	CCCCNC1=CC(=O)c2c(OC)ccc(OC)c2C1=O [Compound 5d, 2-butylamino-5,8-dimethoxy-1,4-naphthoquinone]	–	–	–
102 to 103 °C	CCCCCNC1=CC(=O)c2c(OC)ccc(OC)c2C1=O [Compound 5e, 2-pentylamino-5,8-dimethoxy-1,4-naphthoquinone]	–	–	–
83 to 84 °C	CCCCCCNC1=CC(=O)c2c(OC)ccc(OC)c2C1=O [Compound 5f, 2-hexylamino-5,8-dimethoxy-1,4-naphthoquinone]	–	–	–
74 to 75 °C	CCCCCCCNC1=CC(=O)c2c(OC)ccc(OC)c2C1=O [Compound 5g, 2-heptylamino-5,8-dimethoxy-1,4-naphthoquinone]	–	–	–
81 to 82 °C	CCCCCCCCNC1=CC(=O)c2c(OC)ccc(OC)c2C1=O [Compound 5h, 2-octylamino-5,8-dimethoxy-1,4-naphthoquinone]	–	–	–
